Measured values published in patent US20050096259A1, “Neutrophil activation by immune response modifier compounds” (3M Innovative Properties Company, priority 2003, published 2005).

These compounds were tested on TLR8, TLR7 (assay: TLR agonism classification (TLR8 versus TLR7 agonist)). Conditions: classification in words; agonist of TLR8 but not TLR7 = TLR8-selective; no numeric data given.
Assay type: cell-based
Excerpt: The TLR agonism for a particular compound may be assessed in any suitable manner. […] The assay used to assess the agonism of a compound with respect to one TLR may be the same as, or a different than, the assay used to assess the agonism of the compound with respect to another TLR.
Similarly, a compound may be identified as not acting as a TLR7 agonist (i.e., a TLR7 non-agonist) if, when used to perform an assay designed to detect TLR7-mediated biological activity, the compound fails to elicit a threshold increase in TLR7-mediated biological activity. […] An assay may or may not be performed in conjunction with the appropriate control.
Assays employing HEK293 cells transfected with an expressible TLR structural gene may use a threshold of, for example, at least a three-fold increase in a TLR-mediated biological activity (e.g., NFKB activation) when the compound is provided at a concentration of, for example, from about 1 μM to about 30 μM for identifying a compound as an agonist of the TLR transfected into the cell. However, different thresholds and/or different concentration ranges may be suitable in certain circumstances. Also, different thresholds may be appropriate for different assays.

Row | Compound | TLR agonist selectivity (TLR7/TLR8) as stated for the compound
1 | CCOCc1nc2c(N)nc3c(c2n1CC(C)(C)O)CCCC3 [Compound 2, 4-amino-2-(ethoxymethyl)-α,α-dimethyl-6,7,8,9-tetrahydro-1H-imidazo[4,5-c]quinoline-1-ethanol] | TLR7/8 agonist
2 | CCc1nc2c(N)nc3ccccc3c2n1CCCCNS(C)(=O)=O [Compound 3, N-[4-(4-amino-2-ethyl-1H-imidazo[4,5-c]quinolin-1-yl)butyl]methanesulfonamide] | TLR7-selective agonist
3 | CC(C)Cn1cnc2c(N)nc3ccccc3c21 [Compound 4, 1-(2-methylpropyl)-1H-imidazo[4,5-c]quinolin-4-amine, reference compound] | TLR7-selective agonist
4 | CCCCCCCCCCCCCCCC(=O)NCCOCCn1c(CCOC)nc2c(N)nc3ccccc3c21 [Compound 5, N-(2-{2-[4-amino-2-(2-methoxyethyl)-1H-imidazo[4,5-c]quinolin-1-yl]ethoxy}ethyl)hexadecanamide] | TLR8-selective agonist
5 | CCOCc1nc2c(N)nc3ccccc3c2n1CCNS(C)(=O)=O [Compound 6, N-{2-[4-amino-2-(ethoxymethyl)-1H-imidazo[4,5-c]quinolin-1-yl]ethyl}methanesulfonamide] | TLR8-selective agonist
